Measured values from paper PMC10130320, “Extracellular enzymes secreted in the mycelial block of Lentinula edodes during hyphal growth” (AMB Express, 2023).
Counter-ions that a name gives are not always drawn.

Tests used:
[1] = biological target: T1, Lcc5 (Lentinula edodes, UniProt R9WU11); test: ABTS oxidation, absorbance at […] nm; type: biochemical; conditions: 1.25 mM ABTS; 50 mM sodium citrate pH 3.0; partially purified fraction P1-1
T1 construct: native, partially purified from sawdust medium (fraction P1-1), 68 kDa on SDS-PAGE
T1 sequence (R9WU11 22-515): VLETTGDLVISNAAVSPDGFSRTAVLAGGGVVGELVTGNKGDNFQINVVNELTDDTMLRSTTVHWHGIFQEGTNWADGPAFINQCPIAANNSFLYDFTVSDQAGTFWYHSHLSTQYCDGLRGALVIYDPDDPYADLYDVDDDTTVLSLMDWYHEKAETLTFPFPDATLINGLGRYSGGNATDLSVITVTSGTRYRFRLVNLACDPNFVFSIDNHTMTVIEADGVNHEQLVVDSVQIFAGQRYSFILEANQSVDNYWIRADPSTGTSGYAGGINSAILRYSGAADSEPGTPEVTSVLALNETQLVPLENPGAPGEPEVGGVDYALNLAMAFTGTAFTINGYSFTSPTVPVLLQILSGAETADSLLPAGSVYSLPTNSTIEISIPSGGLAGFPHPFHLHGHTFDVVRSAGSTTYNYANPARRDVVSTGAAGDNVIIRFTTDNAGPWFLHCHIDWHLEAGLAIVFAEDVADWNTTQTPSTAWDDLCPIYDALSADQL

[2] = biological target: T2, Lcc13 (Lentinula edodes, UniProt A0A0P0ZBE8); test: ABTS oxidation, absorbance at […] nm; type: biochemical; conditions: 1.25 mM ABTS; 50 mM sodium citrate pH 3.0; partially purified fraction P2-2
T2 construct: native, partially purified from sawdust medium (fraction P2-2), 61 kDa on SDS-PAGE
T2 sequence (A0A0P0ZBE8 20-520): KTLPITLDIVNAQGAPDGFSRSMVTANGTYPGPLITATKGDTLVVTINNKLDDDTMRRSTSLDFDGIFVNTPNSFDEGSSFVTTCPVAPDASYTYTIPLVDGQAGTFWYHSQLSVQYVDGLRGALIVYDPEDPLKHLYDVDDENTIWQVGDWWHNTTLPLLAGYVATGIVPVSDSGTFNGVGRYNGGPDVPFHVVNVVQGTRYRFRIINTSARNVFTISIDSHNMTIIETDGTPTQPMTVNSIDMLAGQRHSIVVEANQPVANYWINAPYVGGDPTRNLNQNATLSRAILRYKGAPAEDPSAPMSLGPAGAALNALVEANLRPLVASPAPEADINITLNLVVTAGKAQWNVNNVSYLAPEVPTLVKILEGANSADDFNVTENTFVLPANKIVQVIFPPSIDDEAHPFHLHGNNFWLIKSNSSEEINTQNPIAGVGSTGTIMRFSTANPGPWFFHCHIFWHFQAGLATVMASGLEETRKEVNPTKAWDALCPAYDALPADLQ

## CCn1c(=NN=c2sc3cc(S(=O)(=O)O)ccc3n2CC)sc2cc(S(=O)(=O)O)ccc21 [ABTS, 2,2-azino-bis (3-ethylbenzothiazoline-6-sulfonic acid) diammonium salt]
[1]
  ABTS oxidation, absorbance at 420 nm: the Lcc purification was performed based on the enzymatic activity for ABTS
[2]
  ABTS oxidation, absorbance at 420 nm: the Lcc purification was performed based on the enzymatic activity for ABTS
